Columns and labels:
Melanocortin receptor 3 = Melanocortin receptor 3 (Homo sapiens, UniProt P41968); assay: Antagonist activity at C-terminal HA-tagged human MC3-R stably expressed in HEK293 cells co-expressing GScAMP22P cAMP reporter assessed as inhibition of alpha-MSH induced cAMP production by cell based luminescence assay; format: functional; settings: read-out: IC50
[1] = biological target: T1, Melanocyte-stimulating hormone receptor (Homo sapiens, UniProt Q01726); assay: Partial agonist activity at C-terminal HA-tagged human MC1-R stably expressed in HEK293 cells co-expressing GScAMP22P cAMP reporter assessed as inhibition of alpha-MSH induced cAMP production by cell based luminescence assay relative to control; format: functional; design: concentration or dose not given beside the values; settings: filed as partial agonist, concentration not given here
Target sequence in this assay (Q01726 whole entry, looked up): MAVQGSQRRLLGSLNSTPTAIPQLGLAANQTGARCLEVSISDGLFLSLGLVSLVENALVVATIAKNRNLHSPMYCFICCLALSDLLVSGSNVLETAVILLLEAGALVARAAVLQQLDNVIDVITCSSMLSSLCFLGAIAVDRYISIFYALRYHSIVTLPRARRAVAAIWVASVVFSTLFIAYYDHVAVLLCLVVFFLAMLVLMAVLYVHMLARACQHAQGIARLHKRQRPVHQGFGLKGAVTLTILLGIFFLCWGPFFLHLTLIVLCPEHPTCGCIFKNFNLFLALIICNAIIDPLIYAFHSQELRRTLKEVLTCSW

HEK293 [2] = assay: (§1) Selectivity ratio of IC50 for C-terminal HA-tagged human MC4-R stably expressed in HEK293 cells co-expressing GScAMP22P cAMP reporter assessed as inhibition of alpha-MSH induced cAMP production to IC50 for C-terminal HA-tagged human MC3-R stably expressed in HEK293 cells co-expressing GScAMP22P cAMP reporter assessed as inhibition of alpha-MSH induced cAMP production; format: cell-based
[3] = biological target: T1, Melanocyte-stimulating hormone receptor; assay: Partial agonist activity at C-terminal HA-tagged human MC1-R stably expressed in HEK293 cells co-expressing GScAMP22P cAMP reporter assessed as inhibition of alpha-MSH induced cAMP production by cell based luminescence assay; format: functional
Target sequence in this assay (Q01726 whole entry): as the sequence (Q01726 whole entry, looked up) above

Melanocortin receptor 4 = Melanocortin receptor 4 (Homo sapiens, UniProt P32245); assay: Antagonist activity at C-terminal HA-tagged human MC4-R stably expressed in HEK293 cells co-expressing GScAMP22P cAMP reporter assessed as inhibition of alpha-MSH induced cAMP production by cell based luminescence assay; format: functional; settings: read-out: IC50
Chain of Melanocortin receptor 4 (P32245 whole entry): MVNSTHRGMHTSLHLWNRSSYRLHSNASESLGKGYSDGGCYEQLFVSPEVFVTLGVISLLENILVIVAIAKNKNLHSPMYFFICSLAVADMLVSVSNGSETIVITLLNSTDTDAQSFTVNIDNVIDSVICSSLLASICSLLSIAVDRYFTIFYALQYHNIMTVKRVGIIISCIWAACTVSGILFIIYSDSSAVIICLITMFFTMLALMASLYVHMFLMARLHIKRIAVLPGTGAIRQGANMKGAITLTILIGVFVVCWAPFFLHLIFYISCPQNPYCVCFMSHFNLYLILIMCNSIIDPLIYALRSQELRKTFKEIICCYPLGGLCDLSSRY

HEK293 [4] = assay: as §1, with “MC1-R” for “MC3-R”; format: cell-based

Chain of Melanocortin receptor 3 (P41968 whole entry): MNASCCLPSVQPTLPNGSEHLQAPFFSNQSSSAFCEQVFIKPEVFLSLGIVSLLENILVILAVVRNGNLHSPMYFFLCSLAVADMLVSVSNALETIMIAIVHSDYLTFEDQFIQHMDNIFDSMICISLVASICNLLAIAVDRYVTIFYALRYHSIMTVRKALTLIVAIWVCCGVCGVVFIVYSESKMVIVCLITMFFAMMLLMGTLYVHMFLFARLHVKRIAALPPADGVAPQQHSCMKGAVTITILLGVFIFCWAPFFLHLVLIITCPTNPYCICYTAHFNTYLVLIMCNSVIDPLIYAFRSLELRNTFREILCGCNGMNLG

| inhibition [1] | IC50 [3] | Compound | other results |
| --- | --- | --- | --- |
| 83.5% | 68.9 nM | CCCCCCc1cn([C@H]2C[C@H]3C(=O)N[C@H](Cc4ccc5ccccc5c4)C(=O)N[C@@H](CCCNC(=N)N)C(=O)N[C@@H](Cc4c[nH]c5ccccc45)C(=O)NCC(=O)N[C@H](C(N)=O)CCCCNC(=O)C[C@H](NC(=O)[C@H](CCCC)NC(C)=O)C(=O)N3C2)nn1 | IC50 (Melanocortin receptor 3): 59.5 nM; Ratio IC50 (HEK293 [2]): 6; IC50 (Melanocortin receptor 4): 9.92 nM; Ratio IC50 (HEK293 [4]): 7 |
| 73.7% | 3060 nM | CC(=O)N[C@H](CCCN)C(=O)N[C@H]1CC(=O)NCCCC[C@@H](C(N)=O)NC(=O)[C@H](CCCNC(=N)N)NC(=O)[C@H](Cc2c[nH]c3ccccc23)NC(=O)[C@H](CCCNC(=N)N)NC(=O)[C@@H](Cc2ccc3ccccc3c2)NC(=O)[C@@H]2CCCN2C1=O | – |
| 83.2% | 608 nM | CCCC[C@H](NC(C)=O)C(=O)N[C@H]1CC(=O)NCCCC[C@@H](C(N)=O)NC(=O)[C@H](CCCCNC(=N)NCCC(=O)O)NC(=O)[C@H](Cc2c[nH]c3ccccc23)NC(=O)[C@H](CCCNC(=N)N)NC(=O)[C@@H](Cc2ccc3ccccc3c2)NC(=O)[C@@H]2CCCN2C1=O | – |
| 85.3% | 15.4 nM | CCCC[C@H](NC(C)=O)C(=O)N[C@H]1CC(=O)NCCCC[C@@H](C(N)=O)NC(=O)[C@H](CCCCNC(=N)NCCN)NC(=O)[C@H](Cc2c[nH]c3ccccc23)NC(=O)[C@H](CCCNC(=N)N)NC(=O)[C@@H](Cc2ccc3ccccc3c2)NC(=O)[C@@H]2CCCN2C1=O | – |
| 76% | – | CCCC[C@H](NC(C)=O)C(=O)N[C@H]1CC(=O)NCCCC[C@@H](C(N)=O)NC(=O)[C@H](Cc2c[nH]c3ccccc23)NC(=O)[C@H](CCCNC(=N)N)NC(=O)[C@@H](Cc2ccc3ccccc3c2)NC(=O)[C@H](Cc2c[nH]cn2)NC1=O | – |
| 89.5% | 77.4 nM | CCCC[C@H](NC(C)=O)C(=O)N[C@H]1CC(=O)NCCCC[C@@H](C(N)=O)NC(=O)CNC(=O)[C@H](Cc2c[nH]c3ccccc23)NC(=O)[C@H](CCCNC(=N)N)NC(=O)[C@@H](Cc2ccc3ccccc3c2)NC(=O)[C@@H]2C[C@H](n3cc(C4CCCCC4)nn3)CN2C1=O | IC50 (Melanocortin receptor 3): 56.8 nM |
| 81.6% | 158 nM | CCCC[C@H](NC(C)=O)C(=O)N[C@H]1CC(=O)NCCCC[C@@H](C(N)=O)NC(=O)[C@H](CCCCN)NC(=O)[C@H](Cc2c[nH]c3ccccc23)NC(=O)[C@H](CCCNC(=N)N)NC(=O)[C@@H](Cc2ccc3ccccc3c2)NC(=O)[C@@H]2CCCN2C1=O | – |
| 78.6% | 0.12 nM | CCCC[C@H](NC(C)=O)C(=O)N[C@H]1CC(=O)NCCCC[C@@H](C(N)=O)NC(=O)CNC(=O)[C@H](Cc2c[nH]c3ccccc23)NC(=O)[C@H](CCCNC(=N)N)NC(=O)[C@@H](Cc2ccc3ccccc3c2)NC(=O)[C@@H]2C[C@H](NC(=O)CCNC(=N)N)CN2C1=O | – |
| 85.9% | 5.09 nM | CCCC[C@H](NC(C)=O)C(=O)N[C@H]1CC(=O)NCCCC[C@@H](C(N)=O)NC(=O)CNC(=O)[C@H](Cc2c[nH]c3ccccc23)NC(=O)[C@H](CCCNC(=N)N)NC(=O)[C@@H](Cc2ccc3ccccc3c2)NC(=O)[C@@H]2C[C@H](n3cc(CCNC(=N)N)nn3)CN2C1=O | – |
| – | – | CCCC[C@H](NC(C)=O)C(=O)N[C@H]1CC(=O)NCCCC[C@@H](C(N)=O)NC(=O)CNC(=O)[C@H](Cc2c[nH]c3ccccc23)NC(=O)[C@H](CCCNC(=N)N)NC(=O)[C@@H](Cc2ccc3ccccc3c2)NC(=O)[C@@H]2C[C@@H](n3cc(C(C)(C)N)nn3)CN2C1=O | IC50 (Melanocortin receptor 3; hek293): 72.4 nM; IC50 ([3]; hek293): 1.53 nM; IC50 (Melanocortin receptor 4; hek293): 4.34 nM |
| – | – | CCCC[C@H](NC(C)=O)C(=O)N[C@H]1CC(=O)NCCCC[C@@H](C(N)=O)NC(=O)CNC(=O)[C@H](Cc2c[nH]c3ccccc23)NC(=O)[C@H](CCCNC(=N)N)NC(=O)[C@@H](Cc2ccc3ccccc3c2)NC(=O)[C@@H]2C[C@@H](n3cc(-c4ccccn4)nn3)CN2C1=O | IC50 (Melanocortin receptor 3; hek293): 6.35 nM; IC50 ([3]; hek293): 213 nM; IC50 (Melanocortin receptor 4; hek293): 4.01 nM |
| 86.2% | 75 nM | CCCC[C@H](NC(C)=O)C(=O)N[C@H]1CC(=O)NCCCC[C@@H](C(N)=O)NC(=O)[C@H](CCCCNC(=N)NCCC)NC(=O)[C@H](Cc2c[nH]c3ccccc23)NC(=O)[C@H](CCCNC(=N)N)NC(=O)[C@@H](Cc2ccc3ccccc3c2)NC(=O)[C@@H]2CCCN2C1=O | – |
| 83.8% | 363 nM | CCCC[C@H](NC(C)=O)C(=O)N[C@H]1CC(=O)NCCCC[C@@H](C(N)=O)NC(=O)[C@H](CCCN)NC(=O)[C@H](Cc2c[nH]c3ccccc23)NC(=O)[C@H](CCCNC(=N)N)NC(=O)[C@@H](Cc2ccc3ccccc3c2)NC(=O)[C@@H]2CCCN2C1=O | – |
| 90.1% | 13.5 nM | CCCC[C@H](NC(C)=O)C(=O)N[C@H]1CC(=O)NCCCC[C@@H](C(N)=O)NC(=O)CNC(=O)[C@H](Cc2c[nH]c3ccccc23)NC(=O)[C@H](CCCNC(=N)N)NC(=O)[C@@H](Cc2ccc3ccccc3c2)NC(=O)[C@@H]2C[C@H](NC(=O)Cc3ccccc3)CN2C1=O | – |
| 94.6% | 1240 nM | CC(=O)N[C@H](CCCNC(=N)N)C(=O)N[C@H]1CC(=O)NCCCC[C@@H](C(N)=O)NC(=O)[C@H](CCCNC(=N)N)NC(=O)[C@H](Cc2c[nH]c3ccccc23)NC(=O)[C@H](CCCNC(=N)N)NC(=O)[C@@H](Cc2ccc3ccccc3c2)NC(=O)[C@@H]2CCCN2C1=O | – |
| 90.6% | 816 nM | CCCC[C@H](NC(C)=O)C(=O)N[C@H]1CC(=O)NCCCC[C@@H](C(N)=O)NC(=O)[C@H](CCCCNC(=N)N)NC(=O)[C@H](Cc2c[nH]c3ccccc23)NC(=O)[C@H](CCCNC(=N)N)NC(=O)[C@@H](Cc2ccc3ccccc3c2)NC(=O)[C@@H]2CCCN2C1=O | – |
| 76.4% | 0.08 nM | CCCC[C@H](NC(C)=O)C(=O)N[C@H]1CC(=O)NCCCC[C@@H](C(N)=O)NC(=O)CNC(=O)[C@H](Cc2c[nH]c3ccccc23)NC(=O)[C@H](CCCNC(=N)N)NC(=O)[C@@H](Cc2ccc3ccccc3c2)NC(=O)[C@@H]2C[C@@H](NC(=O)CCNC(=N)N)CN2C1=O | – |
| 88.7% | 175 nM | CCCC[C@H](NC(C)=O)C(=O)N[C@H]1CC(=O)NCCCC[C@@H](C(N)=O)NC(=O)[C@H](CCCCNC(=N)N(CCC)CCC)NC(=O)[C@H](Cc2c[nH]c3ccccc23)NC(=O)[C@H](CCCNC(=N)N)NC(=O)[C@@H](Cc2ccc3ccccc3c2)NC(=O)[C@@H]2CCCN2C1=O | – |
| 88.6% | 90 nM | CCCC[C@H](NC(C)=O)C(=O)N[C@H]1CC(=O)NCCCC[C@@H](C(N)=O)NC(=O)[C@H](Cc2ccc(NC(=N)N)cc2)NC(=O)[C@H](Cc2c[nH]c3ccccc23)NC(=O)[C@H](CCCNC(=N)N)NC(=O)[C@@H](Cc2ccc3ccccc3c2)NC(=O)[C@@H]2CCCN2C1=O | – |
| – | – | CCCC[C@H](NC(C)=O)C(=O)N[C@H]1CC(=O)NCCCC[C@@H](C(N)=O)NC(=O)CNC(=O)[C@H](Cc2c[nH]c3ccccc23)NC(=O)[C@H](CCCNC(=N)N)NC(=O)[C@@H](Cc2ccc3ccccc3c2)NC(=O)[C@@H]2C[C@@H](n3cc(CCCNC(=N)N)nn3)CN2C1=O | IC50 (Melanocortin receptor 3; hek293): 18.8 nM; IC50 ([3]; hek293): 0.49 nM; IC50 (Melanocortin receptor 4; hek293): 3.26 nM |
| 89.6% | 92 nM | CCCC[C@H](NC(C)=O)C(=O)N[C@H]1CC(=O)NCCCC[C@@H](C(N)=O)NC(=O)[C@H](CCCCNC(=N)NCc2ccccc2)NC(=O)[C@H](Cc2c[nH]c3ccccc23)NC(=O)[C@H](CCCNC(=N)N)NC(=O)[C@@H](Cc2ccc3ccccc3c2)NC(=O)[C@@H]2CCCN2C1=O | – |
| 91.2% | 575 nM | CCCC[C@H](NC(C)=O)C(=O)N[C@H]1CC(=O)NCCCC[C@@H](C(N)=O)NC(=O)[C@H](CCCNC(N)=O)NC(=O)[C@H](Cc2c[nH]c3ccccc23)NC(=O)[C@H](CCCNC(=N)N)NC(=O)[C@@H](Cc2ccc3ccccc3c2)NC(=O)[C@@H]2CCCN2C1=O | – |
| 90.9% | 22.5 nM | CCCC[C@H](NC(C)=O)C(=O)N[C@H]1CC(=O)NCCCC[C@@H](C(N)=O)NC(=O)CNC(=O)[C@H](Cc2c[nH]c3ccccc23)NC(=O)[C@H](CCCNC(=N)N)NC(=O)[C@@H](Cc2ccc3ccccc3c2)NC(=O)[C@@H]2C[C@H](NC(=O)c3ccccc3)CN2C1=O | – |
| – | 10.1 nM | CCCCCC(=O)N[C@H]1C[C@H]2C(=O)N[C@H](Cc3ccc4ccccc4c3)C(=O)N[C@@H](CCCNC(=N)N)C(=O)N[C@@H](Cc3c[nH]c4ccccc34)C(=O)NCC(=O)N[C@H](C(N)=O)CCCCNC(=O)C[C@H](NC(=O)[C@H](CCCC)NC(C)=O)C(=O)N2C1 | – |

| Compound | inhibition [1] | IC50 [3] | other results |
| --- | --- | --- | --- |
| CCCCC(NC(C)=O)C(=O)N[C@H]1CC(=O)NCCCC[C@@H](C(N)=O)NC(=O)CNC(=O)[C@H](Cc2c[nH]c3ccccc23)NC(=O)[C@H](CCCNC(=N)N)NC(=O)[C@@H](Cc2ccc3ccccc3c2)NC(=O)[C@@H]2C[C@@H](n3cc(CCCNC(=N)N)nn3)CN2C1=O (stereo not given in full) | 84.7% | – | Ratio IC50 (HEK293 [2]): 5.8; Ratio IC50 (HEK293 [4]): 0.1 |
| CCCCC(NC(C)=O)C(=O)N[C@H]1CC(=O)NCCCC[C@@H](C(N)=O)NC(=O)CNC(=O)[C@H](Cc2c[nH]c3ccccc23)NC(=O)[C@H](CCCNC(=N)N)NC(=O)[C@@H](Cc2ccc3ccccc3c2)NC(=O)[C@@H]2C[C@@H](n3cc(-c4ccccn4)nn3)CN2C1=O (stereo not given in full) | 88.4% | – | Ratio IC50 (HEK293 [2]): 1.6; Ratio IC50 (HEK293 [4]): 53 |
